In patent publication US11098052B2, “4-azapodophylotoxins compounds” (Arizona Board of Regents on behalf of Arizona State …, priority 2016, dated 2021):
In brackets after ≈: the same amount, converted by molar mass.

Assays:
[1] = tested on: P388 murine lymphocytic leukemia cell line; settings: footnote c: See Ref 25; cited from earlier work
[2] = tested on: MCF-7 (breast); assay: Human cancer cell growth inhibition, sulforhodamine B assay, MCF-7; assay type: cell-based; settings: MCF7, 48 h, read-out: Growth Inhibition of Human Cancer Cell Lines (GI50), MCF-7
Method: (§1) Cancer Cell Line Procedures. The human cancer cell growth inhibition data were determined using the standard sulforhodamine B assay of the US National Cancer Institute as previously described.^35 In short, cells in a 5% fetal bovine serum/RPMI1640 medium were inoculated in 96-well plates and incubated for 24 h. Next, serial dilutions of the samples were added. After 48 h, the plates were fixed with trichloroacetic acid, stained with sulforhodamine B, and read with an automated microplate reader. A growth inhibition of 50% (GI50 or the drug concentration causing a 50% reduction in the net protein increase) was determined from optical density data employing Immunosoft® software.

[3] = tested on: P388 murine lymphocytic leukemia cell line; assay: Murine P388 lymphocytic leukemia inhibitory activity; assay type: cell-based; settings: Mus musculus, P388, read-out: Murine P388 Lymphocytic Leukemia Inhibitory Activity (ED50)
[4] = tested on: NCI-H460 (lung); assay: Human cancer cell growth inhibition, sulforhodamine B assay, NCI-H460; assay type: cell-based; settings: NCI-H460, 48 h, read-out: Growth Inhibition of Human Cancer Cell Lines (GI50), NCI-H460
Method: as §1

[5] = tested on: DU-145 (prostate); assay: Human cancer cell growth inhibition, sulforhodamine B assay, DU-145; assay type: cell-based; settings: DU-145, 48 h, read-out: Growth Inhibition of Human Cancer Cell Lines (GI50), DU-145
Method: as §1

[6] = tested on: SF-268 (CNS); assay: Human cancer cell growth inhibition, sulforhodamine B assay, SF-268; assay type: cell-based; settings: SF-268, 48 h, read-out: Growth Inhibition of Human Cancer Cell Lines (GI50), SF-268
Method: as §1

[7] = tested on: KM20L2 (colon); assay: Human cancer cell growth inhibition, sulforhodamine B assay, KM20L2; assay type: cell-based; settings: KM-20L2, 48 h, read-out: Growth Inhibition of Human Cancer Cell Lines (GI50), KM20L2
Method: as §1

[8] = tested on: BXPC-3 (pancreas); assay: Human cancer cell growth inhibition, sulforhodamine B assay, BXPC-3; assay type: cell-based; settings: BXPC-3, 48 h, read-out: Growth Inhibition of Human Cancer Cell Lines (GI50), BXPC-3
Method: as §1

Row | SMILES | Murine P388 Lymphocytic Leukemia Inhibitory Activity (ED50) [1] [mg/L] | melting point | GI50 [2] [mg/L] | IC50 [3] [mg/L] | GI50 [4] [mg/L] | GI50 [5] [mg/L] | GI50 [6] [mg/L] | GI50 [7] [mg/L] | GI50 [8] [mg/L]
1 | COc1cc(C2C3=C(COC3=O)Nc3cc4c(cc32)OCO4)cc(OC)c1OC (stereo not shown) [Compound 15e, 6,7-Methylenedioxy-9-(3,4,5-trimethoxyphenyl)-4,9-dihydro-3H-furo[3,4-b]quinolin-1-one] | 0.0018 | 273 to 275 °C |  |  |  |  |  |  | 
2 | COc1cc(C2C3=C(COC3=O)N(CCc3ccc(F)cc3)c3cc4c(cc32)OCO4)cc(OC)c1OC (stereo not shown) [Compound 25, 6,7-Methylenedioxy-4-[2-(4-fluorophenyl)-ethyl]-9-(3,4,5-trimethoxyphenyl)-4,9-dihydro-3H-furo[3,4-b]quinolin-1-one] |  | 174 to 177 °C | 0.42 (≈ 0.808 µM) | 3.3 (≈ 6.35 µM) | 2.3 (≈ 4.43 µM) | 2.5 (≈ 4.81 µM) | 0.52 (≈ 1 µM) | 2.4 (≈ 4.62 µM) | 0.9 (≈ 1.73 µM)
3 | COc1cc(C2C3=C(COC3=O)N(CCc3ccc(Cl)cc3)c3cc4c(cc32)OCO4)cc(OC)c1OC (stereo not shown) [Compound 26, 6,7-Methylenedioxy-4-[2-(4-chlorophenyl)-ethyl]-9-(3,4,5-trimethoxyphenyl)-4,9-dihydro-3H-furo[3,4-b]quinolin-1-one] |  | 170 to 173 °C | 0.34 (≈ 0.634 µM) | 2.6 (≈ 4.85 µM) | 0.3 (≈ 0.56 µM) | 0.31 (≈ 0.578 µM) | 0.35 (≈ 0.653 µM) | 0.37 (≈ 0.69 µM) | 0.54 (≈ 1.01 µM)
4 | COc1cc(C2C3=C(COC3=O)N(CCc3ccc([N+](=O)[O-])cc3)c3cc4c(cc32)OCO4)cc(OC)c1OC (stereo not shown) [Compound 27, 6,7-Methylenedioxy-4-[2-(4-nitrophenyl)-ethyl]-9-(3,4,5-trimethoxyphenyl)-4,9-dihydro-3H-furo[3,4-b]quinolin-1-one] |  | 188 to 190 °C | 0.08 (≈ 0.146 µM) | 34.8 (≈ 63.7 µM) | 0.3 (≈ 0.549 µM) | 0.3 (≈ 0.549 µM) | 0.2 (≈ 0.366 µM) | 0.26 (≈ 0.476 µM) | 0.39 (≈ 0.714 µM)
5 | COc1cc(C2C3=C(COC3=O)N(CCCn3ccnc3)c3cc4c(cc32)OCO4)cc(OC)c1OC (stereo not shown) [Compound 28, 6,7-Methylenedioxy-4-(3-imidazol-1-yl-propyl)-9-(3,4,5-trimethoxyphenyl)-4,9-dihydro-3H-furo[3,4-b]quinolin-1-one] |  | 206 °C (dec.) | 0.64 (≈ 1.27 µM) | 2 (≈ 3.96 µM) | 3 (≈ 5.93 µM) | 2.1 (≈ 4.15 µM) | 2.5 (≈ 4.95 µM) | 2.2 (≈ 4.35 µM) | 2.9 (≈ 5.74 µM)
